{"source": "ChEMBL document CHEMBL5390209", "about": "“Spinosyn A and Its Derivative Inhibit Colorectal Cancer Cell Growth via the EGFR Pathway” (J Nat Prod, 2023)", "key": {"HT-29 [1]": {"tested_on": "HT-29", "test": "Antitumor activity against human HT-29 cells xenografted Balb/c mouse assessed as inhibited tumor growth at 10 mg/kg/day, ip administrated for twice a week and measured after 6 days", "type": "functional, organism-based", "conditions": "time 6.0 day"}, "[2]": {"test": "Toxicity in human HT-29 cells xenografted Balb/c mouse assessed as change in body weight at 10 mg/kg/day, ip administrated for twice a week and measured after 6 days", "type": "organism-based", "conditions": "in vivo, 144 h, time 6 day"}, "HT-29 [3]": {"tested_on": "HT-29", "test": "Antitumor activity against human HT-29 cells xenografted Balb/c mouse assessed as reduction in tumor growth at 10 mg/kg/day, ip administrated for twice a week and measured after 28 days", "type": "functional, organism-based", "conditions": "time 28.0 day"}, "HT-29 [4]": {"tested_on": "HT-29", "test": "Antitumor activity against human HT-29 cells xenografted Balb/c mouse assessed as reduction in tumor cell density at 10 mg/kg/day, ip administrated for twice a week and measured after 28 days by Hematoxylin and Eosin staining based method", "type": "functional, organism-based", "conditions": "time 28.0 day"}, "HT-29 [5]": {"tested_on": "HT-29", "test": "Antitumor activity against human HT-29 cells xenografted Balb/c mouse assessed as reduction in Ki67 expression level at 10 mg/kg/day, ip administrated for twice a week and measured after 28 days by immunohistochemistry staining method", "type": "functional, organism-based", "conditions": "time 28.0 day"}, "[6]": {"test": "Toxicity in human HT-29 cells xenografted Balb/c mouse assessed as change in liver pathology at 10 mg/kg/day, ip administrated for twice a week and measured after 28 days", "type": "organism-based", "conditions": "in vivo, 672 h, time 28 day"}, "[7]": {"test": "Toxicity in human HT-29 cells xenografted Balb/c mouse assessed as change in heart pathology at 10 mg/kg/day, ip administrated for twice a week and measured after 28 days", "type": "organism-based", "conditions": "in vivo, 672 h, time 28 day"}, "[8]": {"test": "Toxicity in human HT-29 cells xenografted Balb/c mouse assessed as change in spleen pathology at 10 mg/kg/day, ip administrated for twice a week and measured after 28 days", "type": "organism-based", "conditions": "in vivo, 672 h, time 28 day"}, "[9]": {"test": "Toxicity in human HT-29 cells xenografted Balb/c mouse assessed as change in lung pathology at 10 mg/kg/day, ip administrated for twice a week and measured after 28 days", "type": "organism-based", "conditions": "in vivo, 672 h, time 28 day"}, "[10]": {"test": "Toxicity in human HT-29 cells xenografted Balb/c mouse assessed as change in kidney pathology at 10 mg/kg/day, ip administrated for twice a week and measured after 28 days", "type": "organism-based", "conditions": "in vivo, 672 h, time 28 day"}, "HT-29 [11]": {"tested_on": "HT-29", "test": "Inhibition of EGFR in human HT-29 cells xenografted in BALB/c nude mouse assessed as EGFR protein level in tumor at 10 mg/kg/day, ip administrated for twice a week and measured after 28 days by Western blotting analysis", "type": "functional, organism-based", "conditions": "time 28.0 day"}, "HT-29 [12]": {"tested_on": "HT-29", "test": "Inhibition of HER2 in human HT-29 cells xenografted in BALB/c nude mouse assessed as HER2 protein level in tumor at 10 mg/kg/day, ip administrated for twice a week and measured after 28 days by Western blotting analysis", "type": "functional, organism-based", "conditions": "time 28.0 day"}, "HT-29 [13]": {"tested_on": "HT-29", "test": "Inhibition of EGFR in human HT-29 cells xenografted in BALB/c nude mouse assessed as reduction in EGFR protein expression level in tumor at 10 mg/kg/day, ip administrated for twice a week and measured after 28 days by Western blotting analysis", "type": "functional, organism-based", "conditions": "time 28.0 day"}, "HT-29 [14]": {"tested_on": "HT-29", "test": "Inhibition of HER2 in human HT-29 cells xenografted in BALB/c nude mouse assessed as HER2 protein expression level in tumor at 10 mg/kg/day, ip administrated for twice a week and measured after 28 days by Western blotting analysis", "type": "functional, organism-based", "conditions": "time 28.0 day"}}, "note": "Active and inactive are the calls of the source. The calls are words filed in the database; no cut-off is given here.", "data": [{"compound": "O=c1[nH]cc(F)c(=O)[nH]1", "note": "[FLUOROURACIL]", "values": [{"measurement": "inhibition", "setting": "HT-29 [1]", "value": "Active"}, {"measurement": "Activity", "setting": "[2]", "value": "Non-Toxic"}, {"measurement": "Activity", "setting": "HT-29 [3]", "value": "Active"}, {"measurement": "Activity", "setting": "HT-29 [4]", "value": "Active"}, {"measurement": "Activity", "setting": "HT-29 [5]", "value": "Active"}, {"measurement": "Activity", "setting": "[6]", "value": "Non-Toxic"}, {"measurement": "Activity", "setting": "[7]", "value": "Non-Toxic"}, {"measurement": "Activity", "setting": "[8]", "value": "Non-Toxic"}, {"measurement": "Activity", "setting": "[9]", "value": "Non-Toxic"}, {"measurement": "Activity", "setting": "[10]", "value": "Non-Toxic"}, {"measurement": "inhibition", "setting": "HT-29 [11]", "value": "Active"}, {"measurement": "inhibition", "setting": "HT-29 [12]", "value": "inactive"}, {"measurement": "inhibition", "setting": "HT-29 [13]", "value": "Active"}, {"measurement": "inhibition", "setting": "HT-29 [14]", "value": "inactive"}]}]}
